{"source": "patent US8450527B2", "about": "“Amine derivative compounds for treating ophthalmic diseases and disorders” (Acucela Inc., priority 2007, dated 2013)", "note": "Structures can show the parent of a compound that is named as a salt."}
{"target": "T1, visual cycle isomerase (Bos taurus, UniProt Q28175)", "T1 construct": "Bovine Retinal Pigment Epithelium (RPE) microsome membranes were the source of a visual cycle isomerase; from tissue; host or cells: bovine retinal pigment epithelium microsome membranes; CRALBP made in E. coli", "T1 sequence (Q28175 2-533 limits assumed)": "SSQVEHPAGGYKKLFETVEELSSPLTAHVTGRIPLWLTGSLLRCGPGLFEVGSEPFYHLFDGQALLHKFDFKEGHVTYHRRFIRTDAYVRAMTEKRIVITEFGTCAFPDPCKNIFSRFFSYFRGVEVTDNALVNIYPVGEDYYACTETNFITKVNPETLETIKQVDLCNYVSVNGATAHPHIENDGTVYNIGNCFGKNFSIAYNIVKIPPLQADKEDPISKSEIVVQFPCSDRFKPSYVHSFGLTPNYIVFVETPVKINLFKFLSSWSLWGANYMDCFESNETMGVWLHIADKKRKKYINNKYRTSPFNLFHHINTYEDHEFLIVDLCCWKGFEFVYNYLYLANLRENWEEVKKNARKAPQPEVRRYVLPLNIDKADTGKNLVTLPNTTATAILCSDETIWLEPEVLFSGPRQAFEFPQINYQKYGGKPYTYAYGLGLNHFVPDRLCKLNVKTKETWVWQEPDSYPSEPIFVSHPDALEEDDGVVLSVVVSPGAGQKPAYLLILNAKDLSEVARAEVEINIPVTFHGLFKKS", "assay": "In vitro isomerase inhibition assay, bovine RPE microsome membranes", "type": "biochemical", "settings": "inhibition of 11-cis retinol formation; values given as ranges", "description": "The capability of amine derivative compounds to inhibit the activity of a visual cycle isomerase was determined\nIsomerase inhibition reactions were performed essentially as described (Stecher et al., J. Biol. Chem. 274:8577-85 (1999); see also Golczak et al., Proc. Natl. Acad. Sci. USA 102:8162-67 (2005)). Bovine Retinal Pigment Epithelium (RPE) microsome membranes were the source of a visual cycle isomerase.\nBovine RPE microsome membrane extracts were prepared according to methods described (Golczak et al., Proc. Natl. Acad. Sci. USA 102:8162-67 (2005)) and stored at −80° C. Crude RPE microsome extracts were thawed in a 37° C. water bath, and then immediately placed on ice. 50 ml crude RPE microsomes were placed into a 50 ml Teflon-glass homogenizer (Fisher Scientific, catalog no. 0841416M) on ice, powered by a hand-held DeWalt drill, and homogenized ten times upand down on ice under maximum speed. This process was repeated until the crude RPE microsome solution was homogenized. The homogenate was then subjected to centrifugation (50.2 Ti rotor (Beckman, Fullerton, Calif.), 13,000 RPM; 15360 Rcf) for 15 minutes at 4° C. The supernatant was collected and subjected to centrifugation at 42,000 RPM (160,000 Rcf; 50.2 Ti rotor) for 1 hour at 4° C. The supernatant was removed, and the pellets were suspended in 12 ml (final volume) cold 10 mM MOPS buffer, pH 7.0. The resuspended RPE membranes in 5 ml aliquots were homogenized in a glass-to-glass homogenizer (Fisher Scientific, catalog no.K885500-0021) to high homogeneity. Protein concentration was quantified using the BCA protein assay according to the manufacturer's protocol (Pierce, Rockford, Ill.). The homogenized RPE preparations were stored at −80° C.\nRecombinant human apo cellular retinaldehyde-binding protein (CRALBP) was cloned and expressed according to standard methods in the molecular biology art (see Crabb et al., Protein Science 7:746-57 (1998); Crabb et al., J. Biol. Chem. 263:18688-92 (1988)). Briefly, total RNA was prepared from confluent ARPE^19 cells (American Type Culture Collection, Manassas, Va.), cDNA was synthesized using an oligo(dT)12-18 primer, and then DNA encoding CRALBP was amplified by two sequential polymerase chain reactions (see Crabb et al., J. Biol. Chem. 263:18688-92 (1988); Intres, et al., J. Biol. Chem. 269:25411-18 (1994); GenBank Accession No. L34219.1). The PCR product was sub-cloned into pTrcHis2-TOPO TA vector according to the manufacturer's protocol (Invitrogen Inc., Carlsbad, Calif.; catalog no. K4400-01), and then the sequence was confirmed according to standard nucleotide sequencing techniques. Recombinant 6×His-tagged human CRALBP was expressed in One Shot TOP 10 chemically competent E. coli cells (Invitrogen), and the recombinant polypeptide was isolated from E. coli cell lysates by nickel affinity chromatography using nickel (Ni) Sepharose XK16-20 columns for HPLC (Amersham Bioscience, Pittsburgh, Pa.; catalog no.17-5268-O2). The purified 6×His-tagged human CRALBP was dialyzed against 10 mM bis-tris-Propane (BTP) and analyzed by SDS-PAGE. The molecular weight of the recombinant human CRALBP was approximately 39 kDal.\nAmine derivative compounds and control compounds were reconstituted in ethanol to 0.1 M. Ten-fold serial dilutions (10^−2, 10^−3, 10^−4, 10^−5, 10^−6 M) in ethanol of each compound were prepared for analysis in the isomerase assay.\nThe isomerase assay was performed in 10 mM bis-tris-propane (BTP) buffer, pH 7.5, 0.5% BSA (diluted in BTP buffer), 1 mM sodium pyrophosphate, 20 μM all-trans retinol (in ethanol), and 6 μM apo-CRALBP. The test compounds (2 μl) (final 1/15 dilution of serial dilution stocks) were added to the above reaction mixture to which RPE microsomes were added. The same volume of ethanol was added to the control reaction (absence of test compound). Bovine RPE microsomes (9 μl) (see above) were then added, and the mixtures transferred to 37° C. to initiate the reaction (total volume=150 μl). […]", "units": {"IC50": "µM"}}
{"smiles": "CCC(O)(CC)CCc1cccc(CCCN)c1", "note": "[Example 2, 1-(3-(3-aminopropyl)phenyl)-3-ethylpentan-3-ol]", "IC50": "≤ 1"}
{"smiles": "CC(C)(O)CCc1cccc(CCCN)c1", "note": "[Example 4, 4-(3-(3-Aminopropyl)phenyl)-2-methylbutan-2-ol]", "IC50": "1 to 10"}
{"smiles": "COCCCc1cccc(CCCN)c1", "note": "[Example 5, 3-(3-(3-Methoxypropyl)phenyl)propan-1-amine]", "IC50": "1 to 10"}
{"smiles": "NCCCc1cccc(CCCO)c1", "note": "[Example 6, 3-(3-(3-aminopropyl)phenyl)propan-1-ol]", "IC50": "10 to 100"}
{"smiles": "CCCC(O)CCc1cccc(CCCN)c1", "note": "(stereo not drawn) [Example 8, 1-(3-(3-aminopropyl)phenyl)hexan-3-ol]", "IC50": "1 to 10"}
{"smiles": "NCCOc1cccc(CCCCCCO)c1", "note": "[Example 13, 6-(3-(2-aminoethoxy)phenyl)hexan-1-ol]", "IC50": "≤ 1"}
{"smiles": "NCCOc1cccc(CCCC2CCCC2)c1", "note": "[Example 14, 2-(3-(3-cyclopentylpropyl)phenoxy)ethanamine]", "IC50": "≤ 1"}
{"smiles": "NCCC(O)c1cccc(CCCc2ccccc2)c1", "note": "(stereo not drawn) [Example 18, 3-amino-1-(3-(3-phenylpropyl)phenyl)propan-1-ol]", "IC50": "≤ 1"}
{"smiles": "NCCCc1cccc(CCc2ccc3ccccc3c2)c1", "note": "[Example 21, 3-(3-(2-(naphthalen-2-yl)ethyl)phenyl)propan-1-amine]", "IC50": "10 to 100"}
{"smiles": "NCCCc1cccc(CCc2ccccc2)c1", "note": "[Example 22, 3-(3-phenethylphenyl)propan-1-amine]", "IC50": "1 to 10"}
{"smiles": "NCCCc1cccc(CCCCO)c1", "note": "[Example 23, 4-(3-(3-aminopropyl)phenyl)butan-1-ol]", "IC50": "10 to 100"}
{"smiles": "NCCCc1cccc(CCC2CCCC2)c1", "note": "[Example 24, 3-(3-(2-cyclopentylethyl)phenyl)propan-1-amine]", "IC50": "≤ 1"}
{"smiles": "NCCCc1cccc(CCC2CCCCC2)c1", "note": "[Example 25, 3-(3-(2-cyclohexylethyl)phenyl)propan-1-amine]", "IC50": "≤ 1"}
{"smiles": "NCCCc1cccc(CCCc2ccccc2)c1", "note": "[Example 26, 3-(3-(3-phenylpropyl)phenyl)propan-1-amine]", "IC50": "≤ 1"}
{"smiles": "CCCCCCc1cccc(CCCN)c1", "note": "[Example 28, 3-(3-hexylphenyl)propan-1-amine]", "IC50": "≤ 1"}
{"smiles": "NCCCc1cccc(CCCCCCO)c1", "note": "[Example 30, 6-(3-(3-aminopropyl)phenyl)hexan-1-ol]", "IC50": "≤ 1"}
{"smiles": "Cc1ccccc1CCc1cccc(CCCN)c1", "note": "[Example 31, 3-(3-(2-methylphenethyl)phenyl)propan-1-amine]", "IC50": "1 to 10"}
{"smiles": "NCCCc1cccc(CCc2cccc(-c3ccccc3)c2)c1", "note": "[Example 32, 3-(3-(2-(Biphenyl-3-yl)ethyl)phenyl)propan-1-amine]", "IC50": "10 to 100"}
{"smiles": "COCCCCCCc1cccc(CCCN)c1", "note": "[Example 33, 3-(3-(6-methoxyhexyl)phenyl)propan-1-amine]", "IC50": "≤ 1"}
{"smiles": "CCCCC(CCCC)c1cccc(CCCN)c1", "note": "[Example 34]", "IC50": "1 to 10"}
{"smiles": "NCCOc1cccc(CCc2cccnc2)c1", "note": "[Example 36, 2-(3-(2-(pyridin-3-yl)ethyl)phenoxy)ethanamine]", "IC50": "1 to 10"}
{"smiles": "NCCOc1cccc(CCc2ccccn2)c1", "note": "[Example 37, 2-(3-(2-(pyridin-2-yl)ethyl)phenoxy)ethanamine]", "IC50": "1 to 10"}
{"smiles": "NCCOc1cccc(CCc2cccs2)c1", "note": "[Example 38, 2-(3-(2-(thiophen-2-yl)ethyl)phenoxy)ethanamine]", "IC50": "≤ 1"}
{"smiles": "Cc1cccc(C)c1NC(=O)c1cccc(CCCN)c1", "note": "[Example 166, 3-(3-aminopropyl)-N-(2,6-dimethylphenyl)benzamide]", "IC50": "100 to 1000"}
{"system": "retinoid nuclear receptors (RAR and RxR)", "assay": "Retinoid nuclear receptor activity", "settings": "not given"}
{"smiles": "C/C(=C\\c1ccc(C(=O)O)cc1)c1ccc2c(c1)C(C)(C)CCC2(C)C", "note": "[TTNPB, E-4-[2-(5,6,7,8-tetrahydro-5,5,8,8-tetramethyl-2-naphthylenyl)-1-propenyl]benzoic acid, reference compound]", "effects on retinoid nuclear receptors (RAR and RxR)": "activated"}
{"smiles": "CC1=C(/C=C/C(C)=C/C=C/C(C)=C/C(=O)O)C(C)(C)CCC1", "note": "[at-RA, All-trans-retinoic acid, reference compound]", "effects on retinoid nuclear receptors (RAR and RxR)": "activated"}
{"system": "not given", "assay": "not given", "settings": "not given", "units": {"melting point": "°C"}}
{"smiles": "Cc1cccc(C)c1CCc1cccc(CCCN)c1", "note": "(as salt: hydrochloride) [Example 1, 3-(3-(2,6-dimethylphenethyl)phenyl)propan-1-amine]", "melting point": "106 to 108"}
